Publication PMC12722964, “Immunogenicity risk assessment of peptide-related impurities identified in generic teriparatide products” (Frontiers in Immunology, 2025)
Ends that are not written are not given here.

How the values were obtained:
HLA-DRB1*0901 = HLA-DRB1*0901 (Homo sapiens, UniProt P01903+P01911, A100R/A103E/D57H/D86V/F55Y/F60I/F76Y/I96F/K127E/L162R/M171V/P40D/Q125H/Q99R/R33Q/R42F/S133A/S66N/T210M/V115G/W38K/Y107V/Y59G/Y89S); experiment: Class II HLA binding assay; conditions: Figure 6; shortened peptides of Table 3; category by IC50; read-out: HLA binding affinity category, DRB1*0901
Procedure: (§1) Class II HLA binding assays used in these studies measure the binding affinity of a target peptide to HLA-DRB1*0101, HLA-DRB1*0301, HLA-DRB1*0401, HLA-DRB1*0701, HLA-DRB1*0901, HLA-DRB1*1101, HLA-DRB1*1301, and HLA-DRB1*1501. The HLA binding assay was originally described by Steere et al. ([21]) and adapted by EpiVax ([22], [23]). Briefly, unlabeled test peptides were incubated overnight to equilibrium with a soluble HLA-DR molecule (Benaroya Research Institute, Seattle, WA, USA) and a biotinylated, allele-specific competitor peptide of known binding affinity. The binding reaction was then neutralized with a buffered pH change, and the peptide-HLA complexes were transferred to a 96-well plate coated with a pan-HLA-DR antibody, clone L243 (BioLegend, San Diego, CA, United States), and incubated overnight. The following day, plates were resolved with the addition of europium-labeled streptavidin (Perkin-Elmer, Waltham, MA, USA). An indirect measure of binding was determined by time-resolved fluorescence. Each peptide was evaluated in triplicate over a range of seven concentrations. The percent inhibition values for each experimental peptide across this concentration range were used to calculate an IC50, the concentration at which the peptide inhibits 50% of the labeled competitor peptide.
(§2) Following the in silico analysis, epitope binding predictions by EpiMatrix were evaluated in vitro by measuring the binding affinity of each impurity peptide relative to the corresponding N- or C-terminal portion of the TPT API, in vitro. The class II HLA-DRB1 binding assay was adapted from an assay originally described by Steere et al. ([21]) that provides an indirect measurement of peptide-HLA affinity. Class II HLA binding peptides typically range in length from 12–20 amino acids; however, the core HLA binding region is nine amino acids. The class II HLA binding groove is open-ended, and the additional flanking residues on either end of the core binding motif stabilize the peptide: HLA binding interaction. Targeted binding motifs were properly centered within the shorter length peptides synthesized for these binding studies (Table 3).

HLA-DRB1*0701 = HLA-DRB1*0701 (Homo sapiens, UniProt P01903+P01911, A100R/A102G/A103Q/D57E/D86V/E43K/F76Y/K127E/L162R/M171V/P40G/Q125H/Q99D/R33Q/R42Y/R54Q/S133A/S66F/T210M/V115G/Y107V/Y59L/Y89S); experiment: Class II HLA binding assay; conditions: Figure 6; shortened peptides of Table 3; category by IC50; read-out: HLA binding affinity category, DRB1*0701
Procedure: as §1, §2

HLA-DRB1*1101 = HLA-DRB1*1101 (Homo sapiens, UniProt P01903+P01911, A100R/A169T/A87E/I96F/K41T/L162R/M171V/P40S/Q125H/Q178H/Q39Y/Q99D/R42S/S66Y/T262R/V115G/W38E); experiment: Class II HLA binding assay; conditions: Figure 6; shortened peptides of Table 3; category by IC50; read-out: HLA binding affinity category, DRB1*1101
Sequence of HLA-DRB1*1101 (P01903 26-254 limits assumed, other chains not shown): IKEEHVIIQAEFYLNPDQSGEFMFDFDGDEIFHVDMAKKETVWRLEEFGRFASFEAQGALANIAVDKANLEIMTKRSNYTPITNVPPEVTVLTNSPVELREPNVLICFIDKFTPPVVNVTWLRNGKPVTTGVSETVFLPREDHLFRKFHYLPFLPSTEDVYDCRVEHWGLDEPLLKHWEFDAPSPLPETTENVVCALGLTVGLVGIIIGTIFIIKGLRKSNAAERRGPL
Procedure: as §1, §2

HLA-DRB1*0101 = biological target: T1, HLA-DRB1*0101 (Homo sapiens, UniProt P01903+P01911, A100R/D57E/F55L/F60I/F76Y/I96L/L162R/M171V/P40L/Q125E/R42F/V115G/Y59C); experiment: Class II HLA binding assay; conditions: Figure 6; shortened peptides of Table 3; category by IC50; read-out: HLA binding affinity category, DRB1*0101
T1 construct: incubated overnight to equilibrium with a soluble HLA-DR molecule; purchased Benaroya Research Institute, Seattle, WA, USA
Procedure: as §1, §2

HLA-DRB1*1301 = HLA-DRB1*1301 (Homo sapiens, UniProt P01903+P01911, A100E/A169T/K41T/L162R/M171V/P40S/Q125H/Q178H/Q39Y/Q99D/R42S/S66N/T262R/W38E/Y61H); experiment: Class II HLA binding assay; conditions: Figure 6; shortened peptides of Table 3; category by IC50; read-out: HLA binding affinity category, DRB1*1301
Procedure: as §1, §2

HLA-DRB1*0401 = biological target: T2, HLA-DRB1*0401 (Homo sapiens, UniProt P01903+P01911, A100K/A169T/F76Y/I96L/K127E/L162R/M171V/N62H/P40V/Q125Y/R42H/S133A/S149N/S66Y/V115G/V209L/W38E); experiment: Class II HLA binding assay; conditions: Figure 6; shortened peptides of Table 3; category by IC50; read-out: HLA binding affinity category, DRB1*0401
T2 construct: incubated overnight to equilibrium with a soluble HLA-DR molecule; purchased Benaroya Research Institute, Seattle, WA, USA
Procedure: as §1, §2

HLA-DRB1*0301 = biological target: T3, HLA-DRB1*0301 (Homo sapiens, UniProt P01903+P01911, A100K/A102G/A103R/A169T/F55Y/I96L/K41T/L162R/M171V/P40S/Q125H/Q178H/Q39Y/R42S/S66N/T106N/T262R/W38E/Y61H); experiment: Class II HLA binding assay; conditions: Figure 6; shortened peptides of Table 3; category by IC50; read-out: HLA binding affinity category, DRB1*0301
T3 construct: incubated overnight to equilibrium with a soluble HLA-DR molecule; purchased Benaroya Research Institute, Seattle, WA, USA
Procedure: as §1, §2

HLA-DRB1*1501 = biological target: T4, HLA-DRB1*1501 (Homo sapiens, UniProt P01903+P01911); experiment: Class II HLA binding assay; conditions: Figure 6; shortened peptides of Table 3; category by IC50; read-out: HLA binding affinity category, DRB1*1501
T4 construct: incubated overnight to equilibrium with a soluble HLA-DR molecule; purchased Benaroya Research Institute, Seattle, WA, USA
Procedure: as §1, §2

[1] = test system: eight class II Supertype Alleles (HLA-DRB1); experiment: Class II HLA binding assay, summary over the panel of eight alleles; set-up: species or system human
Procedure: as §1
as §2, with “Targeted binding motifs were properly centered within the shorter length peptides synthesized for these binding studies (Table 3).” left out

[2] = Overall risk based on in silico and in vitro results; conditions: EpiMatrix and JanusMatrix scores compared with naïve donor T-cell assay
Description: Table 4 Overall risk based on in silico and in vitro results. | column: Overall risk

B cells = test system: B cells; set-up: method as in 2 sources, one per row (each row's own in cited_ref): ref Howard et al. ([38]) ||| ref [37] = [37]; 37 Howard KE . ( 2025 ). Alternative models: from humanized mice to microphysiological systems and beyond , in: Scientific and Regulatory Considerations for Assessment of Immunogenicity Risk for Gener; conditions: cited from earlier work
[3] = human, in vivo; cited from earlier work
Description: Teriparatide (TPT), sold under the brand name Forteo®, is a 34-amino acid peptide drug produced by recombinant DNA (rDNA) technology. Synthetic peptide versions of the drug have recently been approved for the generic drug market. TPT consists of the biologically active N-terminal 34 amino acids of human parathyroid hormone (PTH) (Figure 1) and is approved in the USA for the treatment of postmenopausal osteoporosis in patients at high risk of bone fracture. Since TPT’s sequence is identical to that of the N-terminus of PTH, the development of antibodies that cross-react with the endogenous hor ... || TPT has a history of having low immunogenicity in the clinic, with only 2.8% of treated patients developing antidrug antibodies after 12 months of treatment. Consistent with this, TPT induced IFN-γ production by responding T cells in fewer than 20% of donor cell preparations ex vivo. However, because different impurities can arise from different methods of peptide synthesis and production, it is important to understand whether any peptide-related impurities could contribute to the immunogenicity risk of generic TPT. Here, we performed an immunogenicity risk assessment for several peptide-relat ...

In the case of “MERVEWLRK(Ac)KLQDVHNF [LYS-AC26_TPT (18-34)]”, the IC50 (HLA-DRB1*0901) is reported as over 100 µM, the IC50 (HLA-DRB1*0701) is reported as over 100 µM and the IC50 (HLA-DRB1*1101) is reported as over 100 µM. It also gave an IC50 (HLA-DRB1*0101) of over 100 µM, an IC50 (HLA-DRB1*1301) of over 100 µM and an IC50 (HLA-DRB1*0401) of over 100 µM. It also gave an IC50 (HLA-DRB1*0301) of over 100 µM and an IC50 (HLA-DRB1*1501) of over 100 µM.

In the case of “MERVEWLRKKLQDVHNF-OH [API_TPT (18-34) C-term]”, the “number of the eight class II Supertype Alleles bound” value ([1]; of eight alleles evaluated, negligible to high affinity counted as bound) is reported as “three”, the IC50 (HLA-DRB1*0901) is reported as over 100 µM and the IC50 (HLA-DRB1*0701) is reported as over 100 µM. For the same substance, the IC50 (HLA-DRB1*1101) was 0.1 to 1 µM, the IC50 (HLA-DRB1*0101) was over 100 µM and the IC50 (HLA-DRB1*1301) was 1 to 10 µM. It also gave an IC50 (HLA-DRB1*0401) of over 100 µM, an IC50 (HLA-DRB1*0301) of over 100 µM and an IC50 (HLA-DRB1*1501) of at least 100 µM.

Work on “MERVEWLRKKQDVHNF [DES-LEU28_TPT (18-33)]” yielded an IC50 (HLA-DRB1*0901) of over 100 µM, an IC50 (HLA-DRB1*0701) of over 100 µM and an IC50 (HLA-DRB1*1101) of 1 to 10 µM. It also gave an IC50 (HLA-DRB1*0101) of over 100 µM, an IC50 (HLA-DRB1*1301) of 0.1 to 1 µM and an IC50 (HLA-DRB1*0401) of over 100 µM. The IC50 (HLA-DRB1*0301) was over 100 µM and the IC50 (HLA-DRB1*1501) was at least 100 µM.

For “SVSEIQLMHNLGKHLNSMERVEWLR(K-Ac)KLQDVHNF [LYS-AC26_TERIPARATIDE, observed teriparatide impurity, Lys26 acetylated]”, the “classification in the HLA binding assays” value ([1]; shorter peptide with the modification centered) was “nonbinder” and the Overall risk [2] was “High”.

In the case of “SVSEIQLMHNLGKHLNSMERVEWLRKKLQDVHNF [TERIPARATIDE, teriparatide]”, the “immunogenicity (as measured by activation of B cells)” value (B cells; at multiple doses, in contrast to SCT, ref Howard et al. ([38])) is listed as “lower immunogenicity”, the Overall risk [2] is listed as “Low” and the “treated patients developing antidrug antibodies (ADA)” value [3] is listed as 2.8%.

For “SVSEIQLMHNLGKHLNSMERVEWLRKK–QDVHNF [DES-LEU28_TERIPARATIDE, observed teriparatide impurity, deletion of Leu28]”, the Overall risk [2] was “Low”.

With “SVSEIQLMHNLGK–LNSMERVEWLRKKLQDVHNF [DES-HIS14_TERIPARATIDE, observed teriparatide impurity, deletion of His14]” the Overall risk [2] was “High”.

For “SVSEIQLMHNLG–HLNSMERVEWLRKKLQDVHNF [DES-LYS13_TERIPARATIDE, observed teriparatide impurity, deletion of Lys13]”, the Overall risk [2] was “High”.

In the case of “SVSEIQLMHNLLGKHLNSMERVEWLRKKLQDVHNF [ENDO-LEU11_TERIPARATIDE, theoretical teriparatide impurity predicted by WhIM, duplication of Leu11]”, the Overall risk [2] is reported as “High”.

In the case of “SVSEIQLMHNL–KHLNSMERVEWLRKKLQDVHNF [DES-GLY12_TERIPARATIDE, theoretical teriparatide impurity predicted by WhIM, deletion of Gly12]”, the Overall risk [2] is reported as “High”.

With “SVSEIQLMHN–GKHLNSMERVEWLRKKLQDVHNF [DES-LEU11_TERIPARATIDE, observed teriparatide impurity, deletion of Leu11]” the Overall risk [2] was “High”.

With “SVSEIQLM–NLGKHLNSMERVEWLRKKLQDVHNF [DES-HIS9_TERIPARATIDE, observed teriparatide impurity, deletion of His9]” the Overall risk [2] was “High”.

In the case of “SVSEIQ–MHNLGKHLNSMERVEWLRKKLQDVHNF [DES-LEU7_TERIPARATIDE, observed teriparatide impurity, deletion of Leu7]”, the “binding affinity compared to the corresponding region of the API” value ([1]; impurity peptides alongside N-term or C-term TPT API peptide) is reported as “decreased or equivalent binding affinity” and the Overall risk [2] is reported as “Medium”.

In the case of salmon calcitonin [SCT], the “long-term memory B cells and plasma cells” value (B cells; SCT-treated mice compared to TPT, ref [37]) is given as “Increased numbers”.
